Reference: PMC2858921 (Toxicology and applied pharmacology, 2008)
“Also recorded” adds a separate entry of the source. Read-outs that look alike come from different tables or passages of the source. Marks after values point to notes of the source that are not given here.

Assays:
[1] = Fenthion, fenoxon and fenthion sulfoxide metabolism in liver microsomes; settings: for R-fenoxon sulfoxide formation / S-fenoxon sulfoxide formation: liver, substrate 100 μM; for Vmax, Fenoxon formation / Vmax, MMTP (NADPH-dependent) formation / Vmax, MMTP (NADPH-independent) formation / Vmax, R-fenthion sulfoxide formation / Vmax, S-fenthion sulfoxide formation / Vmax, R-fenoxon sulfoxide formation / Vmax, S-fenoxon sulfoxide formation: liver microsomes incubated with fenthion
[2] = olfactory tissues
AChE = settings: read-out: IC50 (AChE inhibition); ref Gadepalli et al., 2007; cited from earlier work
[3] = Fenthion, fenoxon and fenthion sulfoxide metabolism in gill microsomes; settings: gills, substrate 100 μM, bdl: <0.3
CYP = settings: for reduction of fenoxon formation: liver microsomes, ketoconazole 500 μM; for Fenoxon formation from fenthion / MMTP (NADPH-dependent) formation from fenthion / MMTP (NADPH-independent) formation from fenthion / R-Fenthion sulfoxide formation from fenthion / S-Fenthion sulfoxide formation from fenthion: liver, NADPH+ ketoconazole (500 μM)+ fenthion
[4] = tested on: testosterone hydroxylase (CYP3A27-related); experiment: [14C]Testosterone hydroxylase activity in liver microsomes; settings: Ketoconazole 500 μM; below detection; data not shown
[5] = TEPP inhibition of MMTP formation from fenthion, olfactory tissue microsomes; type: biochemical, rainbow trout (Oncorhynchus mykiss); settings: freshwater-acclimated
[6] = TEPP inhibition of MMTP formation from fenthion, gill microsomes; type: biochemical, rainbow trout (Oncorhynchus mykiss); settings: Gills, freshwater-acclimated
[7] = TEPP inhibition of MMTP formation from fenthion, liver microsomes; type: biochemical, rainbow trout (Oncorhynchus mykiss); settings: freshwater-acclimated
[8] = Cleavage in cytosolic incubations; settings: data not shown
FMO3 = settings: ref Furnes and Schlenk, 2003, 2004; cited from earlier work
recombinant human FMO1 = molecular target: T1, recombinant human FMO1 (Homo sapiens, UniProt Q01740); experiment: Biotransformation by recombinant human FMO1; settings: fenthion sulfoxide as substrate
T1 sequence (Q01740 1-532): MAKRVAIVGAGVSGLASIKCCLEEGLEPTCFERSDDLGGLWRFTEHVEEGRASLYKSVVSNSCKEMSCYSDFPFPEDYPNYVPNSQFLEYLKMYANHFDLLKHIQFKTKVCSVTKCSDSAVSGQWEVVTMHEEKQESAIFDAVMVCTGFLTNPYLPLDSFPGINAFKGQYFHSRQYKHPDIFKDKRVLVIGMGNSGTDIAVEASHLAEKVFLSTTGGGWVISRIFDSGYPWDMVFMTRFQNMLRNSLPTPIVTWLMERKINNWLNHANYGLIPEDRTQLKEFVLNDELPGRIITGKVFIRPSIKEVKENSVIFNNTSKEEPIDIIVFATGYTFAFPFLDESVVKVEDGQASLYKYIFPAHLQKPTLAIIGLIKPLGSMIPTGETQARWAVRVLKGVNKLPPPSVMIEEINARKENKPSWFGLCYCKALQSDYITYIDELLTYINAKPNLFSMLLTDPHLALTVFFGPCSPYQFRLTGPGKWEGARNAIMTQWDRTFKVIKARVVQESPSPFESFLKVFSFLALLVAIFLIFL

[9] = Table 1, freshwater-acclimated, bdl: <0.3
[10] = Table 1, freshwater-acclimated, substrate 100 μM, bdl: <0.3

With `COP(=S)(OC)Oc1ccc([S@@+](C)[O-])c(C)c1` [R-fenthion sulfoxide] the R-fenoxon sulfoxide formation [1, 9] was 5.2±1.1 pmol/min/mg protein, the R-fenoxon sulfoxide formation ([1]; Table 3, Freshwater, bdl: <0.3) was 5.2±1.1 pmol/min/mg protein and the R-fenoxon sulfoxide formation ([1]; Table 3, Hypersaline) was 9.2±0.3 pmol/min/mg protein. For the same compound, the R-fenoxon sulfoxide formation [2, 10] was “bdl”, the IC50 (AChE) was > 1 mM and the R-fenoxon sulfoxide formation ([3]; Table 1, freshwater-acclimated) was 2.9±0.1 pmol/min/mg protein. The R-fenoxon sulfoxide formation ([3]; Table 4, Freshwater) was 2.9±0.1 pmol/min/mg protein.
For `CC(=O)N1CCN(c2ccc(OCC3COC(Cn4ccnc4)(c4ccc(Cl)cc4Cl)O3)cc2)CC1` (centres unmarked) [ketoconazole], the “fenoxon sulfoxide formation with inhibitor” value (CYP; liver microsomes from HA fish, co-incubation) was “below detection”, the “reduction of fenoxon formation” value (CYP; FA fish) was 67% and the “reduction of fenoxon formation” value (CYP; HA fish) was 60%. The “Fenoxon formation from fenthion” value (CYP; Freshwater) was 6.9±1.3 pmol/min/mg protein, the “MMTP (NADPH-dependent) formation from fenthion” value (CYP; Freshwater) was 121.2±15.3 pmol/min/mg protein and the “MMTP (NADPH-independent) formation from fenthion” value (CYP; Freshwater) was 5.3±2.1 pmol/min/mg protein. For the same compound, the “R-Fenthion sulfoxide formation from fenthion” value (CYP; Freshwater) was 16.7±1.7 pmol/min/mg protein, the “S-Fenthion sulfoxide formation from fenthion” value (CYP; Freshwater) was 33.7±2.7 pmol/min/mg protein and the “Fenoxon formation from fenthion” value (CYP; Hypersaline) was 16.8±2.4 pmol/min/mg protein. For the same compound, the “MMTP (NADPH-dependent) formation from fenthion” value (CYP; Hypersaline) was 13.2±4.5 pmol/min/mg protein, the “MMTP (NADPH-independent) formation from fenthion” value (CYP; Hypersaline) was 4.5±1.1 pmol/min/mg protein and the “R-Fenthion sulfoxide formation from fenthion” value (CYP; Hypersaline) was 83.4±8.4 pmol/min/mg protein. For the same compound, the “S-Fenthion sulfoxide formation from fenthion” value (CYP; Hypersaline) was 168.4±13.2 pmol/min/mg protein and the “testosterone hydroxylase activity with inhibitor” value [4] was < 0.2 pmol/min/mg protein.
Work on `COP(=S)(OC)Oc1ccc([S+](C)[O-])c(C)c1` (centres unmarked) [S-fenthion sulfoxide] yielded a S-fenoxon sulfoxide formation [1, 9] of 6.1±0.2 pmol/min/mg protein, a S-fenoxon sulfoxide formation ([1]; Table 3, Freshwater, bdl: <0.3) of 6.1±0.2 pmol/min/mg protein and a S-fenoxon sulfoxide formation ([1]; Table 3, Hypersaline) of 12.2±3.2 pmol/min/mg protein. For the same compound, the S-fenoxon sulfoxide formation [2, 10] was “bdl”, the S-fenoxon sulfoxide formation ([3]; Table 1, freshwater-acclimated) was 2.3±0.2 pmol/min/mg protein and the S-fenoxon sulfoxide formation ([3]; Table 4, Freshwater) was 2.1±0.1 pmol/min/mg protein.
In the case of `CCOP(=O)(OCC)OP(=O)(OCC)OCC` [TEPP, tetraethylpyrophosphate], the “MMTP Formation from fenthion, NADPH-dependent” value ([5]; 100 μM TEPP) is reported as 254.3±18.1^a pmol/min/mg protein, the “MMTP Formation from fenthion, NADPH-dependent” value ([5]; 500 μM TEPP) is reported as 100.2±13.3^b pmol/min/mg protein and the “MMTP Formation from fenthion, NADPH-independent” value ([5]; 500 μM TEPP, bdl: <0.3) is reported as “bdl^b”. For the same compound, the “MMTP Formation from fenthion, NADPH-dependent” value ([5]; 1000 μM TEPP, bdl: <0.3) was “below detection; also recorded: bdl^c”, the “MMTP Formation from fenthion, NADPH-independent” value ([5]; 1000 μM TEPP, bdl: <0.3) was “bdl^b” and the “MMTP Formation from fenthion, NADPH-dependent” value ([6]; 100 μM TEPP) was 105.3±8.9^a pmol/min/mg protein. The “MMTP Formation from fenthion, NADPH-dependent” value ([6]; 500 μM TEPP) was 74.3±10.1^b pmol/min/mg protein, the “MMTP Formation from fenthion, NADPH-independent” value ([6]; 500 μM TEPP, bdl: <0.3) was “bdl^b” and the “MMTP Formation from fenthion, NADPH-dependent” value ([6]; 1000 μM TEPP, bdl: <0.3) was “below detection; also recorded: bdl^c”. For the same compound, the “MMTP Formation from fenthion, NADPH-independent” value ([6]; 1000 μM TEPP, bdl: <0.3) was “bdl^b”, the “MMTP Formation from fenthion, NADPH-dependent” value ([7]; 100 μM TEPP) was 138.4±10.3^a pmol/min/mg protein and the “MMTP Formation from fenthion, NADPH-dependent” value ([7]; 500 μM TEPP) was 65.4±11.1^b pmol/min/mg protein. For the same compound, the “MMTP Formation from fenthion, NADPH-independent” value ([7]; 500 μM TEPP, bdl: <0.3) was “bdl^b”, the “MMTP Formation from fenthion, NADPH-dependent” value ([7]; 1000 μM TEPP, bdl: <0.3) was “below detection; also recorded: bdl^c” and the “MMTP Formation from fenthion, NADPH-independent” value ([7]; 1000 μM TEPP, bdl: <0.3) was “bdl^b”.
For `COP(=S)(OC)Oc1ccc(SC)c(C)c1` [Fenthion, O,O-dimethyl-O-(4-methylmlercapto)-3-methylphenylthio-phosphate], the “Vmax, Fenoxon formation” value ([1]; Freshwater) was 82.8±4.6 pmol/min/mg protein, the “Vmax, MMTP (NADPH-dependent) formation” value ([1]; Freshwater) was 199.2±24.4 pmol/min/mg protein and the “Vmax, MMTP (NADPH-independent) formation” value ([1]; Freshwater) was 53.7±4.8 pmol/min/mg protein. For the same compound, the “Vmax, R-fenthion sulfoxide formation” value ([1]; Freshwater) was 78.6±5.2 pmol/min/mg protein, the “Vmax, S-fenthion sulfoxide formation” value ([1]; Freshwater) was 173.4±9.6 pmol/min/mg protein and the “Vmax, R-fenoxon sulfoxide formation” value ([1]; Freshwater, bdl: <0.3) was “bdl”. For the same compound, the “Vmax, S-fenoxon sulfoxide formation” value ([1]; Freshwater, bdl: <0.3) was “bdl”, the “Vmax, Fenoxon formation” value ([1]; Hypersaline) was 130.0±6.1 pmol/min/mg protein and the “Vmax, MMTP (NADPH-dependent) formation” value ([1]; Hypersaline) was 35.1±1.9 pmol/min/mg protein. For the same compound, the “Vmax, MMTP (NADPH-independent) formation” value ([1]; Hypersaline) was 59.8±10.5 pmol/min/mg protein, the “Vmax, R-fenoxon sulfoxide formation” value ([1]; Hypersaline) was 7.7±0.6 pmol/min/mg protein and the “Vmax, R-fenthion sulfoxide formation” value ([1]; Hypersaline) was 201.1±11.9 pmol/min/mg protein. The “Vmax, S-fenoxon sulfoxide formation” value ([1]; Hypersaline) was 18.4±1.1 pmol/min/mg protein, the “Vmax, S-fenthion sulfoxide formation” value ([1]; Hypersaline) was 355.7±9.4 pmol/min/mg protein and the R-fenoxon sulfoxide formation [1, 9] was “bdl”. For the same compound, the S-fenoxon sulfoxide formation [1, 9] was “bdl”, the R-fenoxon sulfoxide formation ([1]; Table 3, Freshwater, bdl: <0.3) was “bdl” and the S-fenoxon sulfoxide formation ([1]; Table 3, Freshwater, bdl: <0.3) was “bdl”. For the same compound, the “efficiency of R-sulfoxide formation relative to fenoxon” value ([1]; liver microsomes, HA fish) was 2 fold, the “efficiency of S-sulfoxide formation relative to R-sulfoxide” value ([1]; liver microsomes, HA fish) was “approximately 3 fold” and the Fenoxon formation [2, 10] was “bdl”. The R-fenoxon sulfoxide formation [2, 10] was “bdl”, the R-fenthion sulfoxide formation [2, 10] was “bdl” and the S-fenoxon sulfoxide formation [2, 10] was “bdl”. The S-fenthion sulfoxide formation [2, 10] was “bdl”, the sulfoxidation ([2]; HA fish, data not shown) was “not detected” and the “NADPH-independent or dependent cleavage” value [8] was “not observed”. For the same compound, the S-sulfoxide excess formed (FMO3) was 75%, the R-fenoxon sulfoxide formation ([3]; Table 1, freshwater-acclimated) was “bdl” and the S-fenoxon sulfoxide formation ([3]; Table 1, freshwater-acclimated) was “bdl”. The R-fenoxon sulfoxide formation ([3]; Table 4, Freshwater) was “bdl”, the S-fenoxon sulfoxide formation ([3]; Table 4, Freshwater) was “bdl” and the R-fenoxon sulfoxide formation ([3]; Table 4, Hypersaline) was “bdl”. For the same compound, the S-fenoxon sulfoxide formation ([3]; Table 4, Hypersaline) was “bdl”.
With `COP(=S)(OC)Oc1ccc([S+](C)[O-])c(C)c1` (centres unmarked) [fenthion sulfoxide] the Fenoxon sulfoxides production (recombinant human FMO1) was “not produced”.
